Patent publication US20260092071A1, “COMPOUNDS AND COMPOSITIONS AS SMARCA2/4 DEGRADERS AND USES THEREOF” (REGENTS OF THE UNIVERSITY OF MICHIGAN, priority 2022, published 2026)

Tests used:
[1] = target: SMARCA4 (Homo sapiens, UniProt P51532); experiment: HiBit assay in engineered HT1080 CRISPR knock-in cell, 6 hrs (B series), SMARCA4; type: cell-based; details: 6 hrs incubation; for DC50: read-out: SMARC A4 HT1080 HiBit DC50; for Dmax: HT-1080, HT1080 CRISPR knock-in cells, read-out: SMARC A4 HT1080 HiBit Dmax(%)
Outline: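 Compounds were dispensed first, then HT1080 knock-in cells added and incubated for 6 hrs at 37° C. Next, detection reagent containing LgBiT and lytic substrate was added. Plates were shaken 10 min and centrifuged, and luminescence was measured.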

[2] = target: SMARCA2 (Homo sapiens, UniProt P51531); experiment: HiBit assay in engineered HT1080 CRISPR knock-in cell, 6 hrs (B series), SMARCA2; type: cell-based; details: 6 hrs incubation; for DC50: read-out: SMARC A2 HT1080 HiBit DC50; for Dmax: HT-1080, HT1080 CRISPR knock-in cells, read-out: SMARC A2 HT1080 HiBit Dmax (%)
Outline: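 Engineered HT1080 knock-in cells, 2000 cells/well, 6 hrs compound exposure, 37° C/5% CO2, 0.1% DMSO final. Lytic detection: LgBiT 1:100 plus HiBiT substrate 1:50 in lytic buffer, 10 min shake at RT, luminescence read.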

SMARCA2, sequence (P51531 whole entry): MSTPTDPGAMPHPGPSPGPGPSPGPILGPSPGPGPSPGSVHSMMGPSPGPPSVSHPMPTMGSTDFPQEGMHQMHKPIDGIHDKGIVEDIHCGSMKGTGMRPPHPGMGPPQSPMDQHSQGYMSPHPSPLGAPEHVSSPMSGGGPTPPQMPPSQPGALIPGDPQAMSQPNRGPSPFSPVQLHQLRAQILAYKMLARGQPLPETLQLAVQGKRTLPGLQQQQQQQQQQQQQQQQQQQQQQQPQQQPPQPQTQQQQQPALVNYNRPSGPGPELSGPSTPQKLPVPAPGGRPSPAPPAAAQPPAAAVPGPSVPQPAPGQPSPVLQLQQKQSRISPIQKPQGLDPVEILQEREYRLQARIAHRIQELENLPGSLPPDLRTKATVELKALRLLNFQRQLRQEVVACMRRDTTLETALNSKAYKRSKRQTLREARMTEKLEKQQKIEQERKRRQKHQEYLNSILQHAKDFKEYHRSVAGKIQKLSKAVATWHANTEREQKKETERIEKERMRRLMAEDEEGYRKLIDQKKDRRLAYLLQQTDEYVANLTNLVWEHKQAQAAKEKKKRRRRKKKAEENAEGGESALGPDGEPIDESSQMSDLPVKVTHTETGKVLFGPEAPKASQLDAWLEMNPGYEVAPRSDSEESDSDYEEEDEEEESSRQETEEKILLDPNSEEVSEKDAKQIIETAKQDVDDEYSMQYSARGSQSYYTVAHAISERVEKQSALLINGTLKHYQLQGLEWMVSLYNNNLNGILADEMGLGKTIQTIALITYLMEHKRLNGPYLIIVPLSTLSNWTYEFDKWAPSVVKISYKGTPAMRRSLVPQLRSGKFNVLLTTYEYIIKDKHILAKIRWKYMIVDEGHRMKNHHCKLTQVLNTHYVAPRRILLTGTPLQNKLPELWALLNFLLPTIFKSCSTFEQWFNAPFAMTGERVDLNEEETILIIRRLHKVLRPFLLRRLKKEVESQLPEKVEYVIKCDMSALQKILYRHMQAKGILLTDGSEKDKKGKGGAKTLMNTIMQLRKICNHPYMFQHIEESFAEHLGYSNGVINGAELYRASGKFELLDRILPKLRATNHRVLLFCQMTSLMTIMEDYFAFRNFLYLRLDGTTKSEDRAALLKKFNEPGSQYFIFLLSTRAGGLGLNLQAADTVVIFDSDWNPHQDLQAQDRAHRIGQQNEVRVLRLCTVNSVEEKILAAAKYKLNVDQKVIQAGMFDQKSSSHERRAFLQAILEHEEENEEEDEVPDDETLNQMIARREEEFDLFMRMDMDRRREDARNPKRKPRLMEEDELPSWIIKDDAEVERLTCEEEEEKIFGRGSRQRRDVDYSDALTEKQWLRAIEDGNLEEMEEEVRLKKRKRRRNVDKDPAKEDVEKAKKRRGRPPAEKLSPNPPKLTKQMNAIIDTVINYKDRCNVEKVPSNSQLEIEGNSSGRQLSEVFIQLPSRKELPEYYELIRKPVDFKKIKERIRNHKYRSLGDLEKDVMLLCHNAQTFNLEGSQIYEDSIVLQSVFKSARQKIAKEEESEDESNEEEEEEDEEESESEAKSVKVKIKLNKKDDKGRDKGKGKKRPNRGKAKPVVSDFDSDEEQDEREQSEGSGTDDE
SMARCA4, sequence (P51532 whole entry): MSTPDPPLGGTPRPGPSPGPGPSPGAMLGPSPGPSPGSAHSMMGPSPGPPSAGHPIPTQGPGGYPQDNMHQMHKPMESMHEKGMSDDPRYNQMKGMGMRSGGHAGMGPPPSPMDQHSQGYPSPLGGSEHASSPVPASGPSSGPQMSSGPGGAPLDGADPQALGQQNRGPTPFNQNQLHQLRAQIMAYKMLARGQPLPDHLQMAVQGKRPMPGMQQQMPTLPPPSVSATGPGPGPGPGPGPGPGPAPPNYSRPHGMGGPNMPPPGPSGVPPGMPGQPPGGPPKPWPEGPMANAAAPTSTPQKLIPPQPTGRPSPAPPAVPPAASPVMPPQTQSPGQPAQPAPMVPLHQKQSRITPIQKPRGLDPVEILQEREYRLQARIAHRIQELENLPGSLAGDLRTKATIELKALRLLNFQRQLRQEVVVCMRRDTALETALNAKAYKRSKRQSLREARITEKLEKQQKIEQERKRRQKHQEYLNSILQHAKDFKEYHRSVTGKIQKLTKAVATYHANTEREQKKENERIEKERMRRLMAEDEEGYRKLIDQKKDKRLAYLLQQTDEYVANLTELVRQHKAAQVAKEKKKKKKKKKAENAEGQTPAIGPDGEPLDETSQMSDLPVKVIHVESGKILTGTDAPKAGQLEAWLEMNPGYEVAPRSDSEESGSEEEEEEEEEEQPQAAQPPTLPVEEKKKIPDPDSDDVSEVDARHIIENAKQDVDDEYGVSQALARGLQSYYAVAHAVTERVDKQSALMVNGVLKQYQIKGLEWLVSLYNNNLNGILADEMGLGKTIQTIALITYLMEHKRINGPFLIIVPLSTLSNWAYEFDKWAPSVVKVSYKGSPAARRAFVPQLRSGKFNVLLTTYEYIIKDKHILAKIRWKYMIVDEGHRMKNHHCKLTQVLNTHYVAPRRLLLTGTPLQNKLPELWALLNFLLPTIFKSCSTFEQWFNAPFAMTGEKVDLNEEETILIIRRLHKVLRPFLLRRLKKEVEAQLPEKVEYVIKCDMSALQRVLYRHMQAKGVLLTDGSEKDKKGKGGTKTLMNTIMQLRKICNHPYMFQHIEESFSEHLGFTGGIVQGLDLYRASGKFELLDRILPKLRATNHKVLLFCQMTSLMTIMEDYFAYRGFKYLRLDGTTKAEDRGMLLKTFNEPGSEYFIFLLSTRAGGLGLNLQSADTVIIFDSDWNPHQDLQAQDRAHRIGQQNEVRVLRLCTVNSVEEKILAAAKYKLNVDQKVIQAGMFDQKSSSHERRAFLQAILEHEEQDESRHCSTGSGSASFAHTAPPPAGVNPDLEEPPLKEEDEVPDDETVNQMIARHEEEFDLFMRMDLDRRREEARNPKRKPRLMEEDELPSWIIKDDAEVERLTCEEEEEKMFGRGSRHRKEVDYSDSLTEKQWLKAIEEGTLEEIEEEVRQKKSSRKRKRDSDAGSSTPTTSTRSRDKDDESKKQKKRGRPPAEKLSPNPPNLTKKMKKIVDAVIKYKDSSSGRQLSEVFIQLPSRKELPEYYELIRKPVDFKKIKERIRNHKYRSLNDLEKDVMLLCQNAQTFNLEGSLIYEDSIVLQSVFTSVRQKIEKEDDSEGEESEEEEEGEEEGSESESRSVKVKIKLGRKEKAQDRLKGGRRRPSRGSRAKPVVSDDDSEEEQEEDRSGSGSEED

Compound `C[C@H](NC(=O)[C@@H]1C[C@@H](O)CN1C(=O)[C@@H](n1cc([C@H]2CC[C@H](CN3CCC(c4ccc5c(c4)-n4c(nc(=O)c6c(Cl)cccc64)C5(C)C)CC3)CC2)nn1)C(C)(C)C)c1ccc(-c2scnc2Cl)cc1` [Compound B117, (2S,4R)-1-((S)-2-(4-((1r,4S)-4-((4-(4-chloro-7,7-dimethyl-5-oxo-5,7-dihydroindolo[1,2-a]quinazolin-10-yl)piperidin-1-yl)methyl)cyclohexyl)-1H-1,2,3-triazol-1-yl)-3,3-dimethylbutanoyl)-N-((S)-1-(4-(4-chlorothiazol-5-yl)phenyl)ethyl)-4-hydroxypyrrolidine-2-carboxamide] has a DC50 ([1]; HT1080 CRISPR knock-in cells) of 100 to 500 nM, a Dmax [1] of 50 to 69% and a DC50 ([2]; HT1080 CRISPR knock-in cells) of less than 100 nM. The Dmax [2] was greater than 90%.

`Cc1ncsc1-c1ccc([C@H](C)NC(=O)[C@@H]2C[C@@H](O)CN2C(=O)[C@H](C(C)C)n2cc(C3CCC(N4CCC(c5cccc6c5C(C)(C)c5nc(=O)c7c(Cl)cccc7n5-6)CC4)CC3)nn2)cc1` (stereo partly drawn) [Compound B114, (2S,4R)-1-((S)-2-(4-(4-(4-(4-chloro-7,7-dimethyl-5-oxo-5,7-dihydroindolo[1,2-a]quinazolin-8-yl)piperidin-1-yl)cyclohexyl)-1H-1,2,3-triazol-1-yl)-3-methylbutanoyl)-4-hydroxy-N-((S)-1-(4-(4-methylthiazol-5-yl)phenyl)ethyl)pyrrolidine-2-carboxamide] showed a DC50 ([1]; HT1080 CRISPR knock-in cells) of 100 to 500 nM, a Dmax [1] of less than 50% and a DC50 ([2]; HT1080 CRISPR knock-in cells) of less than 100 nM. It also gave a Dmax [2] of 70 to 90%.

With `CC(C)C(C(=O)N1C[C@H](O)C[C@H]1C(=O)N[C@@H](C)c1ccc(-c2ncnn2C)cc1)c1cc(OCCN2CCC(c3ccc4c(c3)C(C)(C)c3nc(=O)c5c(Cl)cccc5n3-4)CC2)no1` (stereo partly drawn) [Compound B75, (2S,4R)-1-(2-(3-(2-(4-(4-chloro-7,7-dimethyl-5-oxo-5,7-dihydroindolo[1,2-a]quinazolin-9-yl)piperidin-1-yl)ethoxy)isoxazol-5-yl)-3-methylbutanoyl)-4-hydroxy-N-((S)-1-(4-(1-methyl-1H-1,2,4-triazol-5-yl)phenyl)ethyl)pyrrolidine-2-carboxamide] the “SMARC A4 HT1080 HiBit Dmax(%)” value ([1]; HT1080 CRISPR knock-in cells) was “D (D (<50% degradation))”, the DC50 ([1]; HT1080 CRISPR knock-in cells) was 100 to 500 nM and the “SMARC A2 HT1080 HiBit Dmax (%)” value ([2]; HT1080 CRISPR knock-in cells) was “B (B (70-90% degradation))”. The DC50 ([2]; HT1080 CRISPR knock-in cells) was 100 to 500 nM.

`Cc1ncsc1-c1ccc2c(c1)CC[C@H]2NC(=O)[C@@H]1C[C@@H](O)CN1C(=O)[C@@H](n1cc([C@H]2CC[C@H](CN3CCC(c4ccc5c(c4)-n4c(nc(=O)c6c(Cl)cccc64)C5(C)C)CC3)CC2)nn1)C(C)(C)C` [Compound B122, (2S,4R)-1-((S)-2-(4-((1r,4S)-4-((4-(4-chloro-7,7-dimethyl-5-oxo-5,7-dihydroindolo[1,2-a]quinazolin-10-yl)piperidin-1-yl)methyl)cyclohexyl)-1H-1,2,3-triazol-1-yl)-3,3-dimethylbutanoyl)-4-hydroxy-N-((R)-5-(4-methylthiazol-5-yl)-2,3-dihydro-1H-inden-1-yl)pyrrolidine-2-carboxamide] was tested, and the DC50 ([1]; HT1080 CRISPR knock-in cells) was 100 to 500 nM, the Dmax [1] was less than 50% and the DC50 ([2]; HT1080 CRISPR knock-in cells) was 100 to 500 nM. For the same compound, the Dmax [2] was 70 to 90%.

For `Cc1ncsc1-c1ccc(C(CN2CCOCC2)NC(=O)[C@@H]2C[C@@H](O)CN2C(=O)[C@H](c2cc(N3CCC(CN4CCN(c5ccc6c(c5)-n5c(nc(=O)c7c(Cl)cccc75)C65CCCCC5)CC4)CC3)no2)C(C)C)cc1` (stereo in doubt) [Compound B160, (2S,4R)-1-((S)-2-(3-(4-((4-(4′-chloro-5′-oxo-5′H-spiro[cyclohexane-1,7′-indolo[1,2-a]quinazolin]-10′-yl)piperazin-1-yl)methyl)piperidin-1-yl)isoxazol-5-yl)-3-methylbutanoyl)-4-hydroxy-N-((S)-1-(4-(4-methylthiazol-5-yl)phenyl)-2-morpholinoethyl)pyrrolidine-2-carboxamide], the DC50 ([1]; HT1080 CRISPR knock-in cells) was less than 100 nM, the Dmax [1] was 50 to 69% and the DC50 ([2]; HT1080 CRISPR knock-in cells) was less than 100 nM. For the same compound, the Dmax [2] was greater than 90%.

With `Cc1ncsc1-c1ccc([C@H](CN2CCOCC2)NC(=O)[C@@H]2C[C@@H](O)CN2C(=O)[C@@H](c2cc(N3CCC(c4ccc5c(c4)C(C)(C)c4nc(=O)c6c(Cl)cccc6n4-5)CC3)no2)C(C)C)cc1` [Compound B110, (2S,4R)-1-(2-(3-(4-(4-chloro-7,7-dimethyl-5-oxo-5,7-dihydroindolo[1,2-a]quinazolin-9-yl)piperidin-1-yl)isoxazol-5-yl)-3-methylbutanoyl)-4-hydroxy-N—((R)-1-(4-(4-methylthiazol-5-yl)phenyl)-2-morpholinoethyl)pyrrolidine-2-carboxamide] the DC50 ([1]; HT1080 CRISPR knock-in cells) was less than 100 nM, the Dmax [1] was 70 to 90% and the DC50 ([2]; HT1080 CRISPR knock-in cells) was less than 100 nM. For the same compound, the Dmax [2] was greater than 90%.

With `Cc1ncsc1-c1ccc([C@H](C)NC(=O)[C@@H]2C[C@@H](O)CN2C(=O)[C@@H](NC(=O)C23CCC(CN4CCC(c5ccc6c(c5)-n5c(nc(=O)c7c(Cl)cccc75)C6(C)C)CC4)(CC2)C3)C(C)(C)C)cc1` [Compound B77, (2S,4R)-1-((S)-2-(4-((4-(4-chloro-7,7-dimethyl-5-oxo-5,7-dihydroindolo[1,2-a]quinazolin-10-yl)piperidin-1-yl)methyl)bicyclo[2.2.1]heptane-1-carboxamido)-3,3-dimethylbutanoyl)-4-hydroxy-N-((S)-1-(4-(4-methylthiazol-5-yl)phenyl)ethyl)pyrrolidine-2-carboxamide] the DC50 ([1]; HT1080 CRISPR knock-in cells) was 100 to 500 nM, the Dmax [1] was 50 to 69% and the DC50 ([2]; HT1080 CRISPR knock-in cells) was less than 100 nM. It also gave a Dmax [2] greater than 90%.

Work on `C[C@H](NC(=O)[C@@H]1C[C@@H](O)CN1C(=O)[C@@H](n1cc([C@H]2CC[C@H](CN3CCC(c4ccc5c(c4)-n4c(nc(=O)c6c(Cl)cccc64)C5(C)C)CC3)CC2)nn1)C(C)(C)C)c1ccc(-c2scnc2C#N)cc1` [Compound B141, (2S,4R)-1-((S)-2-(4-((1r,4S)-4-((4-(4-chloro-7,7-dimethyl-5-oxo-5,7-dihydroindolo[1,2-a]quinazolin-10-yl)piperidin-1-yl)methyl)cyclohexyl)-1H-1,2,3-triazol-1-yl)-3,3-dimethylbutanoyl)-N-((S)-1-(4-(4-cyanothiazol-5-yl)phenyl)ethyl)-4-hydroxypyrrolidine-2-carboxamide] yielded a DC50 ([1]; HT1080 CRISPR knock-in cells) of 100 to 500 nM, a Dmax [1] of less than 50% and a DC50 ([2]; HT1080 CRISPR knock-in cells) of less than 100 nM. The Dmax [2] was greater than 90%.

With `Cc1ncsc1-c1ccc(C2(NC(=O)[C@@H]3C[C@@H](O)CN3C(=O)[C@@H](n3cc([C@H]4CC[C@H](CN5CCC(c6ccc7c(c6)-n6c(nc(=O)c8c(Cl)cccc86)C7(C)C)CC5)CC4)nn3)C(C)(C)C)CN(C)C2)cc1` [Compound B124, (2S,4R)-1-((S)-2-(4-((1r,4S)-4-((4-(4-chloro-7,7-dimethyl-5-oxo-5,7-dihydroindolo[1,2-a]quinazolin-10-yl)piperidin-1-yl)methyl)cyclohexyl)-1H-1,2,3-triazol-1-yl)-3,3-dimethylbutanoyl)-4-hydroxy-N-(1-methyl-3-(4-(4-methylthiazol-5-yl)phenyl)azetidin-3-yl)pyrrolidine-2-carboxamide] the DC50 ([1]; HT1080 CRISPR knock-in cells) was 100 to 500 nM, the Dmax [1] was less than 50% and the DC50 ([2]; HT1080 CRISPR knock-in cells) was less than 100 nM. The Dmax [2] was 70 to 90%.

Compound `Cc1ncsc1-c1ccc([C@H](C)NC(=O)[C@@H]2C[C@@H](O)CN2C(=O)[C@@H](NC(=O)CCCn2cc(-c3ccc4c(c3)C(C)(C)c3nc(=O)c5c(Cl)cccc5n3-4)cn2)C(C)(C)C)cc1` [Compound B93, (2S,4R)-1-((S)-2-(4-(4-(4-chloro-7,7-dimethyl-5-oxo-5,7-dihydroindolo[1,2-a]quinazolin-9-yl)-1H-pyrazol-1-yl)butanamido)-3,3-dimethylbutanoyl)-4-hydroxy-N—((S)-1-(4-(4-methylthiazol-5-yl)phenyl)ethyl)pyrrolidine-2-carboxamide] has a DC50 ([1]; HT1080 CRISPR knock-in cells) of 100 to 500 nM, a Dmax [1] of less than 50% and a DC50 ([2]; HT1080 CRISPR knock-in cells) of 100 to 500 nM. For the same compound, the Dmax [2] was 50 to 69%.

`Cc1cc(C(C(=O)N2C[C@H](O)C[C@H]2C(=O)N[C@@H](CCCCCN2CCC(c3ccc4c(c3)-n3c(nc(=O)c5c(Cl)cccc53)C4(C)C)CC2)c2ccc(-c3scnc3C)cc2)C(C)C)on1` (stereo partly drawn) [Compound B84, (2S,4R)-N-((S)-6-(4-(4-chloro-7,7-dimethyl-5-oxo-5,7-dihydroindolo[1,2-a]quinazolin-10-yl)piperidin-1-yl)-1-(4-(4-methylthiazol-5-yl)phenyl)hexyl)-4-hydroxy-1-(3-methyl-2-(3-methylisoxazol-5-yl)butanoyl)pyrrolidine-2-carboxamide] showed a DC50 ([1]; HT1080 CRISPR knock-in cells) of less than 100 nM, a Dmax [1] greater than 90% and a DC50 ([2]; HT1080 CRISPR knock-in cells) of less than 100 nM. It also gave a Dmax [2] greater than 90%.

Work on `Cc1cc(C(C(=O)N2C[C@H](O)C[C@H]2C(=O)N[C@@H](CCCCCN2CCC(c3ccc4c(c3)C(C)(C)c3nc(=O)c5c(Cl)cccc5n3-4)CC2)c2ccc(-c3scnc3C)cc2)C(C)C)on1` (stereo partly drawn) [Compound B85, (2S,4R)-N-((S)-6-(4-(4-chloro-7,7-dimethyl-5-oxo-5,7-dihydroindolo[1,2-a]quinazolin-9-yl)piperidin-1-yl)-1-(4-(4-methylthiazol-5-yl)phenyl)hexyl)-4-hydroxy-1-(3-methyl-2-(3-methylisoxazol-5-yl)butanoyl)pyrrolidine-2-carboxamide] yielded a DC50 ([1]; HT1080 CRISPR knock-in cells) of less than 100 nM, a Dmax [1] greater than 90% and a DC50 ([2]; HT1080 CRISPR knock-in cells) of less than 100 nM. For the same compound, the Dmax [2] was greater than 90%.
